Results as given in patent publication US12533341B2, “Small molecule inhibitors of voltage-gated sodium channel 1.7 and methods of using same” (Duke University, priority 2019, dated 2026).
“Also recorded” adds a separate entry of the source.

What was measured:
human Nav1.7 = human Nav1.7 (Homo sapiens, UniProt Q15858); assay: Whole-cell patch-clamp of sodium currents in Nav1.7-expressing HEK293 cells; format: cell-based; conditions: 10 μM, screen of compounds 1-9 (FIG. 3)
Protocol: HEK-hNav1.7 stable cell line was purchased from SB Drug Discovery (Glasgow, United Kingdom). Human embryonic kidney 293 (HEK293) cells were obtained from the ATCC and maintained at the Duke cell culture facility. Cells were cultured in high-glucose (4.5 g/L) DMEM containing 10% (v/v) FBS (Gibco) and streptomycin/penicillin. For Nav1.7-expressing HEK293 cells, an additional antibiotic, blasticidin, was included. hNav1.5 transfection was performed by Lipofectamine 2000 at 70% confluence using 2 μg cDNA. The transfected cells were cultured in the same growth medium for 48 h before biochemical or electrophysiological studies.
Whole-cell patch-clamp recordings were conducted at room temperature. Patch pipettes pulled from borosilicate capillaries (World Precision Instruments, Inc., Sarasota, FL) were used to record transient Na currents with an Axopatch-200B amplifier with a Digidata 1440A (Axon Instruments, Sunnyvale CA). The resistance was set to 3-4 MΩ when filled with pipette solution. The pipette solution contained (in mmol/L): CsCl 130, NaCl 9, MgCl2 1, EGTA 10, HEPES 10, adjusted to pH 7.3 with CsOH. The external solution for recording transient Na^+ currents contained (in mmol/L): NaCl 131, TEACl 10, CsCl 10, CaCl2) 1, MgCl2 2, CdCl2 0.3, 4-aminopyridine 3, HEPES 10, glucose 10, adjusted to pH 7.4 with NaOH. The recording chamber (300 μL) was continuously superfused at 3-4 mL/min. Series resistance was compensated (>80%) and leak subtraction was performed. Data were low-pass-filtered at 2 kHz and sampled at 10 kHz. pClamp10 (Axon Instruments) software was used during experiments and analysis. In voltage-clamp experiments, transient Na+ currents were evoked by a test pulse to 0 mV from the holding potential (−70 mV).
The effects of the 9 selected compounds on Nav1.7 channel activities were tested using patch-clamp recordings on human Nav1.7 expressing HEK293 cells (FIG. 3, FIG. 4). In each cell, sodium currents were recorded for 13 min, and candidate inhibitors (10 μM) were incubated for 2 min after 2 min baseline recording (FIG. 3). Compound was applied at the beginning of the second minute for two minutes (denoted as a horizontal line above the X-axis). Sodium currents were recorded at equal intervals (every 20 seconds, 40 recordings per compound per cell). Data was analyzed with a two-way repeated measures ANOVA, followed by a post-hoc test of the last timepoint Bonferroni-corrected for 9 pairwise comparisons (each compound was compared with control). […] Sample size n=3 to 7 cells per group.
For FIG. 4C, sample size was n=5 to 7 cells per group. Compound was applied at the beginning of the second minute for two minutes (denoted as a horizontal line above the X-axis). Sodium currents were recorded every 20 seconds.

[1] = test system: neuropathic pain (CCI, SNI); assay: Neuropathic pain models (CCI, SNI); format: in vivo, mouse; conditions: intrathecally at a dose of 30 mg/kg; CCI and SNI models
Protocol: Neuropathic pain is produced by chronic constriction injury (CCI) of the sciatic nerve. Mice are anesthetized with isoflurane, and three ligatures are 7-0 prolene placed around the nerve proximal to the trifurcation (1 mm between ligatures). The ligatures are loosely tied until a short flick of the ipsilateral hind limb is observed (Chen, Ji, et al. 2015; J Clin. Invest. 125(8):3226-3240).
SNI model. Neuropathic pain is produced by spared nerve injury (SNI). SNI surgery is conducted with a 5.0 silk tight ligation of the tibial and common peroneal nerves followed by transection and removal of a 3-5 mm nerve portion.
Animals in the neuropathic pain models are dosed with N-substituted indoles according to the present disclosure [N-(methylsulfonyl)-3-(3-oxo-1-(3-phenoxyphenyl)-3-((2-(pyrrolidin-1-yl)ethyl)amino)propyl)-1H-indole-1-carboxamide (10); (Z)-N-(5-((3-(3-oxo-1-(3-phenoxyphenyl)-3-((2-(pyrrolidin-1-yl)ethyl)amino)propyl)-1H-indol-1-yl)sulfonyl)-1,3,4-thiadiazol-2-yl)acetimidic acid (11); and 3-(3-phenoxyphenyl)-N-(2-(pyrrolidin-1-yl)ethyl)-3-(1-(thiazol-2-ylsulfonyl)-1H-indol-3-yl)propanamide (12)]. The compounds are synthesized according to the route outlined in Scheme 1 and are administered intrathecally at a dose of 30 mg/kg.

acute and chronic itch = assay: Itch models (acute, dry skin, allergic contact dermatitis); format: in vivo, mouse; conditions: intrathecally at a dose of 30 mg/kg, dry skin and ACD itch models
Protocol: Mice are habituated to the testing environment daily for at least two days before analysis. Mice are shaved at the back of the neck the day before injection. Mice are left in small plastic chambers (14×18×12 cm) on an elevated metal mesh floor and allowed 30 min for habituation before examination. To elicit acute itch, pruritic agent 48/80 or chloroquine are injected intradermally in the nape of the neck and the number of scratched are counted every 5 min for 30 min after the injection. A scratch is counted when a mouse lifts its hindpaw to scratch the shaved region and returns the paw to the floor or to the mouth for the licking (Liu, et al. 2012; J Cin. Invest. 122(6):2195-2207).
To induce chronic itch, the neck skin is painted with acetone and diethyl ether (1:1) followed by water twice a day for 4 days, and spontaneous itch is examined by counting the number of scratches for 60 minutes on day 5. (Liu, et al. 2012, supra).
Chronic itch is induced by applying the hapten 1-fluoro-2,4-dinitrobenzene (DNFB) onto the back skin. (Liu, Ji, et al. 2016; Pain. 157(4):806-817; Zhao, et al. 2013; J Clin. Invest. 123(11):4769-4780). DNFB is dissolved in a mixture of acetone:olive oil (4:1) for sensitization and challenge. One day before sensitization, the surface of the abdomen and the nape of the neck are shaved. Mice are sensitized with 0.5% DNFB solution (50 μL) by topical application to a ˜2 cm^2 area of abdomen skin. Five days later, mice are challenged with 0.2% DNFB solution (30 μL) by painting the shave neck area, then every other day for one week. Spontaneous scratching behaviors are videoed for 1 hour, at 24 hours after each challenge. The behavioral tests of itch are performed blindly.
Animals in the itch models are dosed with N-substituted indoles 10, 11, and 12, which are administered intrathecally at a dose of 30 mg/kg.

[2] = test system: paclitaxel-induced mechanical allodynia; assay: Paclitaxel-induced neuropathic pain model (von Frey); format: in vivo, mouse; conditions: intrathecal 10 nmol and 30 nmol, mice
Protocol: Intraperitoneal injection of paclitaxel (PTX, 2 mg/kg for multiple injections at day 0, 2, 4, and 6) was given to generate chemotherapy-associated neuropathic pain. Neuropathic pain behavior was tested 3 weeks after PTX injection using a von Frey test. Briefly, animals were habituated to the testing environment daily for at least 2 days before the baseline testing. Animals were confined in boxes placed on an elevated metal mesh floor and the hind paws were stimulated with a series of von Frey hairs with logarithmically increasing stiffness (0.02-2.56 g, Stoelting), presented perpendicularly to the central plantar surface. The 50% paw withdrawal threshold was determined by an up-down method.

Chain of human Nav1.7 (Q15858 whole entry): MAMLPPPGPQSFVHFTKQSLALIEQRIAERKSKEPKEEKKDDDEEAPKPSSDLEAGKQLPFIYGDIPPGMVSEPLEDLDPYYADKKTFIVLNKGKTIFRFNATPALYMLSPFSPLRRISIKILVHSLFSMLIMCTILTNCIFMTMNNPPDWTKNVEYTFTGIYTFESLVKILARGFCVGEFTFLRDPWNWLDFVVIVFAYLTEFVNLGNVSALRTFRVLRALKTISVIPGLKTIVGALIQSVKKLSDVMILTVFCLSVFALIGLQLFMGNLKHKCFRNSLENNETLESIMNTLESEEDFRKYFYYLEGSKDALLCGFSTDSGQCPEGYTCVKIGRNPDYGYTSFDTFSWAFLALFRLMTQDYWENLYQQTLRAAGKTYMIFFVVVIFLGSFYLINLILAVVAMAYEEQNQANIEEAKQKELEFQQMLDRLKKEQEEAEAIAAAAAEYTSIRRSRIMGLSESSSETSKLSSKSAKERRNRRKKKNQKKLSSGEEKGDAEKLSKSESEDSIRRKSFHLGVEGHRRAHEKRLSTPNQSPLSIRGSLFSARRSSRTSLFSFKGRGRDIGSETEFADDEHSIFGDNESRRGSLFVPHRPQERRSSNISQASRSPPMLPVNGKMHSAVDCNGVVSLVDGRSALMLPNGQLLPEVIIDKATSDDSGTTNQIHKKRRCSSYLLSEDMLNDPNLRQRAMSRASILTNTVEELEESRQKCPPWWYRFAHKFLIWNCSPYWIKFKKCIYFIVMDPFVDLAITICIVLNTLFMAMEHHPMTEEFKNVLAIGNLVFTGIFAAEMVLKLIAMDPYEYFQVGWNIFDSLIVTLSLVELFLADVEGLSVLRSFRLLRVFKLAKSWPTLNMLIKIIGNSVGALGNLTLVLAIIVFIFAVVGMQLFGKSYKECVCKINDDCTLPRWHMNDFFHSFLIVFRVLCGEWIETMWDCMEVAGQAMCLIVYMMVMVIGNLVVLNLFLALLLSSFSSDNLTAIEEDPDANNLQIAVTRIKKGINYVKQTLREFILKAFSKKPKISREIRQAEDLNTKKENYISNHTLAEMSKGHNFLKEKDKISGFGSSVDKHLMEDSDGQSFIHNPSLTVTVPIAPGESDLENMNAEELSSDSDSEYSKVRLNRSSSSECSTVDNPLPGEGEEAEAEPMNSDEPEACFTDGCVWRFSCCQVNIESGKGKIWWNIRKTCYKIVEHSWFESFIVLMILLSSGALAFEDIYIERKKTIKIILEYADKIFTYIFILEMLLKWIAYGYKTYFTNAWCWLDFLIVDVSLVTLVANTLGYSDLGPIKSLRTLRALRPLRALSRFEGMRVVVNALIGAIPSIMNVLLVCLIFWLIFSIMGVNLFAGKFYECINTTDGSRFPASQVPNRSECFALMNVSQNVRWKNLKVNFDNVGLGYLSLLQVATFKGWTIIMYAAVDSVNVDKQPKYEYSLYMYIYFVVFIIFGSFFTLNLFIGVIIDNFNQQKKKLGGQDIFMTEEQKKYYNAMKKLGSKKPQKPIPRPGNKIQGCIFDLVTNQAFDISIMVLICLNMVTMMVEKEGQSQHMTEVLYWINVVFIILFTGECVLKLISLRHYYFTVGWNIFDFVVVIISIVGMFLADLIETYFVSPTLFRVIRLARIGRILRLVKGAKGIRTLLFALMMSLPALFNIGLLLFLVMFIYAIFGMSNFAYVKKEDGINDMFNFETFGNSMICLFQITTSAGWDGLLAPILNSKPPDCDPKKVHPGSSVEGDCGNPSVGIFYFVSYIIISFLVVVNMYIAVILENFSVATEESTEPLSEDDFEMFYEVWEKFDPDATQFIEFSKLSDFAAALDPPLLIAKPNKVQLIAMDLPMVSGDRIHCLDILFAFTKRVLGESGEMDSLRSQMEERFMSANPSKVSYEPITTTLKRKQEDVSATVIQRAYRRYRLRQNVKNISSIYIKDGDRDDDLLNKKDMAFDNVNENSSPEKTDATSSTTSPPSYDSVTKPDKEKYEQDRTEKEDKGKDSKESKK

SMILES | difference in relative current from the control group at the last measurement (human Nav1.7) | reduction of pain in neuropathic pain models [1] | reduction of scratching in itch models (acute and chronic itch) | anti-allodynic effect in the paclitaxel model [2]
Cc1ccc(Cn2cc(C(CC(=O)NCc3ccncc3)c3cccc(Oc4ccc(Cl)cc4)c3)c3ccccc32)cc1 (stereo not shown) [Compound 5] | 0.29 |  |  | 
COc1ccc(Cn2cc(C(CC(=O)NCc3ccccc3)c3cccc(OCc4ccccc4)c3)c3ccccc32)cc1 (stereo not shown) [Compound 7] | 0.35 |  |  | 
COc1ccc(Cn2cc(C(CC(=O)NCc3ccco3)c3cccc(Oc4ccccc4)c3)c3ccccc32)cc1 (stereo not shown) [Compound 8] | 0.36 |  |  | 
CS(=O)(=O)NC(=O)n1cc(C(CC(=O)NCCN2CCCC2)c2cccc(Oc3ccccc3)c2)c2ccccc21 (stereo not shown) [Compound 10, N-(methylsulfonyl)-3-(3-oxo-1-(3-phenoxyphenyl)-3-((2-(pyrrolidin-1-yl)ethyl)amino)propyl)-1H-indole-1-carboxamide] |  | Reduction of pain is observed | Reduction of scratching is observed | 
CC(=O)Nc1nnc(S(=O)(=O)n2cc(C(CC(=O)NCCN3CCCC3)c3cccc(Oc4ccccc4)c3)c3ccccc32)s1 (stereo not shown) [Compound 11, (Z)-N-(5-((3-(3-oxo-1-(3-phenoxyphenyl)-3-((2-(pyrrolidin-1-yl)ethyl)amino)propyl)-1H-indol-1-yl)sulfonyl)-1,3,4-thiadiazol-2-yl)acetimidic acid] |  | Reduction of pain is observed | Reduction of scratching is observed | 
O=C(CC(c1cccc(Oc2ccccc2)c1)c1cn(S(=O)(=O)c2nccs2)c2ccccc12)NCCN1CCCC1 (stereo not shown) [Compound 12, 3-(3-phenoxyphenyl)-N-(2-(pyrrolidin-1-yl)ethyl)-3-(1-(thiazol-2-ylsulfonyl)-1H-indol-3-yl)propanamide] |  | Reduction of pain is observed | Reduction of scratching is observed | 
Nc1[nH]ncc1-c1cc(Cl)ccc1Oc1cc(F)c(S(=O)(=O)Nc2cscn2)cc1Cl [PF-05089771, reference compound] |  |  |  | failed to produce any anti-allodynic effect; also recorded: did not produce anti-allodynia effects
